Assay results: patent US6949506B2, “Relaxin-like factor and methods and uses thereof” (BAS Medical, Inc., priority 1995, dated 2005)
Positions of bridges follow the written chain, without caps; N, C: chain ends. Chains are numbered I, II in the order given. No end group written: not given here.

Key:
[1] = tested on: procollagenase expression, rheumatoid synovial fibroblasts (Strain No. RSF112); assay: Stimulation of procollagenase expression by synovial fibroblasts (gelatin zymography); format: cell-based, human
Excerpt: A method for detecting and measuring procollagenase formation is described in Unemori, et al., 1991, J. Biol. Chem. 266:23477-482. Such method was modified to measure the expression of procollagenase in the presence of RLF as follows: Materials And Methods. Rheumatoid synovial fibroblasts (Strain No. […] Conditioned media were collected and an aliquot analyzed by gelatin zymography. Procollagenase was identified as a […] doublet at 52/57 kDa. The intensity of the doublet (i.e., the amount of procollagenase expressed, was quantified by scanning densitometry.

[2] = tested on: collagen expression, rheumatoid synovial fibroblasts (Strain No. RSF64); assay: Inhibition of collagen expression by synovial fibroblasts; format: cell-based, human; conditions: 100 ng/ml (each); TGF-β-treated fibroblasts
Method: The method for detecting and measuring collagen formation in the presence of relaxin described in Unemori and Amento, 1990, J. Biol. Chem. 265:10681-685 has been modified as follows to determine the ability of RLF, in vitro, to modulate the expression of collagen. Materials and Methods. Rheumatoid synovial fibroblasts (Strain No. […] The cells were simultaneously biosynthetically labelled with ^3H=[…] μCi/ml) in the presence of ascorbate and BAPN. After 24 hours, the conditioned media were collected and electrophoresed on 4-12% polyacrylamide gels (NOVEX) under reducing conditions. Gels were enhanced, dried, and exposed to X-ray films for 1-2 weeks. Collagen bands were identified on the X-ray films as bacterial collagenase-sensitive, proline-incorporating bands between 95-200 kDa. Band density was quantified by scanning densitometry and used as estimates of collagen expression.

[3] = target: T1, RLF receptor (brain) (Mus musculus, UniProt Q91ZZ5); assay: Binding assay, mouse brain crude membranes, hRLF tracer
T1 construct: from tissue; host or cells: mouse brain, crude membranes
T1 sequence (Q91ZZ5 whole entry): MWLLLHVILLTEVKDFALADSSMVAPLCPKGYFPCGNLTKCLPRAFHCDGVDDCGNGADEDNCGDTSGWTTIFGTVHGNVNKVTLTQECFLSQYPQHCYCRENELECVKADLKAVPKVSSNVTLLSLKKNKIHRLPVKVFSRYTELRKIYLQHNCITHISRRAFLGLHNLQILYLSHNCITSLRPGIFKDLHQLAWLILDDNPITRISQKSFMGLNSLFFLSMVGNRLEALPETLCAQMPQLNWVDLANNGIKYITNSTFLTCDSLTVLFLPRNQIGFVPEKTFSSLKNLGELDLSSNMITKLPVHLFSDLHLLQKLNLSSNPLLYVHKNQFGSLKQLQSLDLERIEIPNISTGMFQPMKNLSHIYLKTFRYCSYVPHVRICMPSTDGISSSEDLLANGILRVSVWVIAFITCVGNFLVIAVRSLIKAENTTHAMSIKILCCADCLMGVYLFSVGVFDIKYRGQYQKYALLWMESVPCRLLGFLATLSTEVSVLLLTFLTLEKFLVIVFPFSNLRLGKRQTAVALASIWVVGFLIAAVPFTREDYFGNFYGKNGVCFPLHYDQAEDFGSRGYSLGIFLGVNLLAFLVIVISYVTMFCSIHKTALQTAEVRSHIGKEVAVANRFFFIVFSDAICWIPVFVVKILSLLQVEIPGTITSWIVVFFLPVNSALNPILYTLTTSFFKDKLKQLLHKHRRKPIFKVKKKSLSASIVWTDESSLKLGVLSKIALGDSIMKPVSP
Method: (§1) Relaxin-binding assays were performed as described in Yang, et al., 1992, Endocrinology 130:179-185 and Büllesbach, et al., 1994, Endocrine. 2:1115-1120, using crude membrane preparations of mouse tissue. Mouse brains of 2 mice were collected into 15 ml of chilled buffer (25 mM HEPES, 0.14 M NaCl, 5.7 mM KCI, 0.2 mM phenylmethylsulfonyl-fluoride, and 80 mg/ml soybean trypsin inhibitor, pH 7.5) supplemented with sucrose (0.25 M, final concentration). The tissue was homogenized on ice for 10 s with a Polytron homogenizer (Brinlmann, Westbury, N.Y.) at setting 5. The homogenate was centrifuged at 700 rpm for 10 min at 4° C. and the supernatants were recentrifuged at 10,000×g for 1 h. The pellet was resuspended in 15 ml of ice cold binding buffer, 25 mM HEPES, 0.14 M NaCl, 5.7 mM KCI, 0.2 mM phenylmethylsulfonylfluoride, and 80 mg/ml soybean trypsin inhibitor, pH 7.5, supplemented with 1% bovine serum albumin, and centrifuged for 1 h at 10,000×g. […] The supernatant was discarded, the tip of the vial cut and counted in a γ-counter. Nonspecific binding was determined in the presence of 2 μl/ml of unlabeled competitor (0.33 μM). […]
Tissue specificity was determined using crude membrane preparations of leg muscles, kidneys, liver. brain, and uterus (of estrogen primed mice). […] Binding was based on protein concentration determined by Lowry. […]

[4] = target: T2, uterine relaxin receptor (Mus musculus, UniProt Q6R6I7); assay: Relaxin-binding assay, mouse uterus crude membranes, porcine relaxin tracer
T2 construct: brain, and uterus (of estrogen primed mice); from tissue; host or cells: uterus of estrogen-primed mice, crude membranes
T2 sequence (Q6R6I7 1-758): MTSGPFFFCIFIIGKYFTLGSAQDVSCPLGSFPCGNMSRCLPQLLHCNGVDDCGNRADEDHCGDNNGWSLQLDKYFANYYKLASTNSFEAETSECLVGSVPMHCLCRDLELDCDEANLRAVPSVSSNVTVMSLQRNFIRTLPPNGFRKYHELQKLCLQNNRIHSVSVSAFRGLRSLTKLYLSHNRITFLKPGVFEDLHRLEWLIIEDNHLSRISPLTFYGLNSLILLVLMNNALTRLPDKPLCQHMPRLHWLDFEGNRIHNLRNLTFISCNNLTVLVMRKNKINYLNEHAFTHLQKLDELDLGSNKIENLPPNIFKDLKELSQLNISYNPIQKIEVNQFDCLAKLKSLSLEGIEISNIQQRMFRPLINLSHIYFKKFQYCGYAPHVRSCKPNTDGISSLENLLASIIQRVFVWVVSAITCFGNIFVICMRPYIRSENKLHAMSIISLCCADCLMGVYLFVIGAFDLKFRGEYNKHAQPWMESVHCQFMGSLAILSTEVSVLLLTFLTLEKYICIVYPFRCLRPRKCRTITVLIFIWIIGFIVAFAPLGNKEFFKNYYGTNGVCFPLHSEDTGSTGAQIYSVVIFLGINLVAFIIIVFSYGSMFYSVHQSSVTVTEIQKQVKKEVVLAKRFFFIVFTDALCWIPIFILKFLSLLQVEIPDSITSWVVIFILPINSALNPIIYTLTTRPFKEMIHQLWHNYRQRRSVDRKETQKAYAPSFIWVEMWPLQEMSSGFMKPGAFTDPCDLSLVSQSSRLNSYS
Method: as §1
Tissue specificity was determined using crude membrane preparations of leg muscles, kidneys, liver. brain, and uterus (of estrogen primed mice). […] Binding was based on protein concentration determined by Lowry.

- stimulation of procollagenase expression ([1]; 1 ng/ml): 0 fold
- stimulation of procollagenase expression ([1]; 10 ng/ml): 2.0 fold
- stimulation of procollagenase expression ([1]; 100 ng/ml): 4.2 fold
- 50% Binding [3]: 0.3 ng
- recognition by the uterine relaxin receptor [4]: barely recognizes
- 50% Binding ([4]; tracer pRLX): 10000 ng
Substance: RLF: synthesized human relaxin-like factor, two-chain peptide (A and B chain, SEQ ID NOS:3 and 4), three disulfide links (alpha AAATNPARYCCLSGCTQQDLLTLCPY; beta PTPEMREKLCGHHFVRALVRVCGGPRWSTEA; disulfide I:11-II:10; also: two further disulfide bonds, places not given here)
- decrease of TGF-β-stimulated collagen expression [2]: 17%
